This is an account of results in US20170157135A1 (Novogen Limited, priority 2013, published 2017).

Type in all cases: cell-based
The subject of assay [1] is SK-N-SH neuroblastoma cells. The assay is described as follows: Anti-proliferative assay (cell-titre luminescent), SK-N-SH. To be noted: Homo sapiens, 72 hours, luminescence. As to the method:
(§1) The ability of compounds 2002, 2009 and 2013-2064 to inhibit the proliferation of cancer cells representative of neuroblastoma, melanoma, prostate cancer, colorectal cancer, non-small cell lung carcinoma, and triple negative breast cancer was assessed. These studies were conducted by contract research (GVK-BIO). Briefly, a pre-determined number of cells as calculated from cell growth assays for each of the cell lines employed were seeded into their respective culture medium (using ATCC culture parameters—http://www.atcc.org) and cultured for 24 h at 37° C. and 5% CO2 in 96-well culture plates. Once attached, each cell line was then exposed to various concentrations of each respective analogue (30, 10, 3, 1, 0.3 and 0.1 μM), cultured for a further 72 hours and exposed to cell-titre luminescent reagent (100 μL/well) for a further 30 minutes). Luminescence was captured using an EnVision multilabel reader and the data for each analogue concentration compared against no treatment control. Cell viability was normalized to control (vehicle alone) and dose-response curves, and half maximal effective concentration (EC50) values were determined using Graph Pad Prism 6 (nonlinear regression sigmoidal dose-response variable slope).

In assay [2] the test system is SK-Mel-28 melanoma cells. Nature of the assay: Anti-proliferative assay (cell-titre luminescent), SK-Mel-28. Particulars: Homo sapiens; SK-Mel-28, 72 hours, luminescence. As for the experimental part: as §1
In assay [3] the test system is DU145 prostate cancer cells. Nature of the assay: Anti-proliferative assay (cell-titre luminescent), DU145. Particulars: Homo sapiens, DU-145; DU145, 72 hours, luminescence. As to the method:
as §1

The subject of assay [4] is PC3 prostate cancer cells. Nature of the assay: Anti-proliferative assay (cell-titre luminescent), PC3. Particulars: PC3, 72 hours, luminescence. As to the method: as §1
In assay [5] the test system is CaCo2 colorectal cancer cells. The assay is described as follows: Anti-proliferative assay (cell-titre luminescent), CaCo2. Particulars: Homo sapiens, Caco-2; CaCo2, 72 hours, luminescence. As for the experimental part:
as §1

The subject of assay [6] is A549 lung (NSLC) cells. Nature of the assay: Anti-proliferative assay (cell-titre luminescent), A549. To be noted: Homo sapiens; A549, 72 hours, luminescence. As to the method:
as §1

The subject of assay [7] is MDA-MB-231 breast cancer cells. Nature of the assay: Anti-proliferative assay (cell-titre luminescent), MDA-MB-231. Particulars: Homo sapiens; MDA-MB-231, 72 hours, luminescence. As to the method: as §1

In general, IC50 refers to the concentration that gives 50% inhibition. As to `COc1ccc(CCN2CCN(C(=O)/C=C/c3c(C)n(CCCN(C)C)c4ccccc34)CC2)cc1` [Compound 2013, (E)-3-(1-(3-(dimethylamino)propyl)-2-methyl-1H-indol-3-yl)-1-(4-(4-methoxyphenethyl)piperazin-1-yl)prop-2-en-1-one], the half-maximal inhibitory concentration (IC50) is 3.2 µM in assay [1]; 3.8 µM in assay [2]; 10 µM in assay [3]; 4.8 µM in assay [4]; 9.1 µM in assay [5]; 6.1 µM in assay [6]. Besides, the IC50 in assay [7] stood at 6.8 µM.
As to `Cc1c(/C=C/C(=O)N2CCN(CCc3ccc4c(c3)OCO4)CC2)c2ccccc2n1CCCN(C)C` [Compound 2014, (E)-1-(4-(2-(benzo[d][1,3]dioxol-5-yl)ethyl)piperazin-1-yl)-3-(1-(3-(dimethylamino)propyl)-2-methyl-1H-indol-3-yl)prop-2-en-1-one], the IC50 in assay [1] was 3.7 µM; in assay [2] it was 3.2 µM; in assay [3], 7.6 µM; in assay [4], 6.5 µM; in assay [5], 9 µM; in assay [6] it was 25.7 µM. This compound also came in with a 50% inhibitory concentration (IC50) in assay [7] of 6.2 µM.
With `Cc1c(/C=C/C(=O)N2CCN(CCc3cccc(F)c3)CC2)c2ccccc2n1CCCN(C)C` [Compound 2015, (E)-3-(1-(3-(dimethylamino)propyl)-2-methyl-1H-indol-3-yl)-1-(4-(3-fluorophenethyl)piperazin-1-yl)prop-2-en-1-one], the IC50 in assay [1] was 8.8 µM; in assay [2], 3.9 µM; in assay [3], 39.2 µM; in assay [4], 12.4 µM; in assay [5], 15.9 µM; in assay [6] it was 14.1 µM. This compound also gave a 50% inhibitory concentration (IC50) in assay [7] of 21.1 µM.
Take `COc1cccc(CCN2CCN(C(=O)/C=C/c3c(C)n(CCCN(C)C)c4ccccc34)CC2)c1` [Compound 2016, (E)-3-(1-(3-(dimethylamino)propyl)-2-methyl-1H-indol-3-yl)-1-(4-(3-methoxyphenethyl)piperazin-1-yl)prop-2-en-1-one]: the half-maximal inhibitory concentration (IC50) in assay [1] worked out at 5 µM; in assay [2], 4.1 µM; in assay [3], 5.4 µM; in assay [4], 5.8 µM; in assay [5] it was 8.9 µM; in assay [6], 4.8 µM. In addition, 10.8 µM corresponded to half-maximal inhibition in assay [7] (IC50).
Take `Cc1c(/C=C/C(=O)N2CCN(CCc3ccccc3)CC2)c2ccccc2n1CCCN(C)C` [Compound 2017, (E)-3-(1-(3-(dimethylamino)propyl)-2-methyl-1H-indol-3-yl)-1-(4-phenethylpiperazin-1-yl)prop-2-en-1-one]: the IC50 is 17.6 µM in assay [1]; 8.7 µM in assay [2]; 15.7 µM in assay [3]; 11.5 µM in assay [4]; 12.6 µM in assay [5]; 13.6 µM in assay [6]. This compound showed an IC50 in assay [7] of 18.5 µM.
For `COc1ccc2c(c1)c(/C=C/C(=O)N1CCN(CCc3ccc(F)cc3)CC1)c(C)n2CCCN(C)C` [Compound 2018, (E)-3-(1-(3-(dimethylamino)propyl)-5-methoxy-2-methyl-1H-indol-3-yl)-1-(4-(4-fluorophenethyl)piperazin-1-yl)prop-2-en-1-one], the IC50 is 8.5 µM in assay [1]; 4.3 µM in assay [2]; 12.1 µM in assay [3]; 8 µM in assay [4]; 38 µM in assay [5]; 15.9 µM in assay [6]. In assay [7], this compound gave an IC50 of 5.7 µM.
Regarding `COc1ccc(CCN2CCN(C(=O)/C=C/c3c(C)n(CCCN(C)C)c4ccc(OC)cc34)CC2)cc1` [Compound 2019, (E)-3-(1-(3-(dimethylamino)propyl)-5-methoxy-2-methyl-1H-indol-3-yl)-1-(4-(4-methoxyphenethyl)piperazin-1-yl)prop-2-en-1-one], the IC50 in assay [1] stood at 5.5 µM; in assay [2], 6.3 µM; in assay [3] it was 14.8 µM; in assay [4], 9.3 µM; in assay [5], 25.1 µM; in assay [6], 10.6 µM. Moreover, the half-inhibitory concentration (IC50) in assay [7] turned out to be 5.1 µM.
As for `COc1ccc2c(c1)c(/C=C/C(=O)N1CCN(CCc3ccc4c(c3)OCO4)CC1)c(C)n2CCCN(C)C` [Compound 2020, (E)-1-(4-(2-(benzo[d][1,3]dioxol-5-yl)ethyl)piperazin-1-yl)-3-(1-(3-(dimethylamino)propyl)-5-methoxy-2-methyl-1H-indol-3-yl)prop-2-en-1-one], the 50% inhibitory concentration (IC50) came to 3.9 µM in assay [1]; 3.5 µM in assay [2]; 5.7 µM in assay [3]; 5.1 µM in assay [4]; 4.5 µM in assay [5]; 3.5 µM in assay [6]. Moreover, the IC50 in assay [7] was determined as 5.1 µM.
In the case of `COc1ccc2c(c1)c(/C=C/C(=O)N1CCN(CCc3cccc(F)c3)CC1)c(C)n2CCCN(C)C` [Compound 2021, (E)-3-(1-(3-(dimethylamino)propyl)-5-methoxy-2-methyl-1H-indol-3-yl)-1-(4-(3-fluorophenethyl)piperazin-1-yl)prop-2-en-1-one], the IC50 turned out to be 5.4 µM in assay [1]; 4.3 µM in assay [2]; 6.9 µM in assay [3]; 7.2 µM in assay [4]; 7.4 µM in assay [5]; 5.4 µM in assay [6]. The compound further displayed an IC50 in assay [7] of 4.8 µM.
On to `COc1cccc(CCN2CCN(C(=O)/C=C/c3c(C)n(CCCN(C)C)c4ccc(OC)cc34)CC2)c1` [Compound 2022, (E)-3-(1-(3-(dimethylamino)propyl)-5-methoxy-2-methyl-1H-indol-3-yl)-1-(4-(3-methoxyphenethyl)piperazin-1-yl)prop-2-en-1-one], for which the concentration for half-maximal inhibition (IC50) in assay [1] was 12.5 µM; in assay [2], 17.2 µM; in assay [3], 22 µM; in assay [4], 7.6 µM; in assay [5], 21.5 µM; in assay [6] it was 12.7 µM. This compound returned an IC50 in assay [7] of 11.3 µM.
With `CCN(CC)CCCn1c(C)c(/C=C/C(=O)N2CCN(CCc3ccc(F)cc3)CC2)c2cc(OC)ccc21` [Compound 2023, (E)-3-(1-(3-(diethylamino)propyl)-5-methoxy-2-methyl-1H-indol-3-yl)-1-(4-(4-fluorophenethyl)piperazin-1-yl)prop-2-en-1-one], the IC50 is 3.6 µM in assay [1]; 2.7 µM in assay [2]; 4.4 µM in assay [3]; 5.6 µM in assay [4]; 10.3 µM in assay [5]; 5.2 µM in assay [6]. The compound further came in with an IC50 in assay [7] of 4.6 µM.
With `CCN(CC)CCCn1c(C)c(/C=C/C(=O)N2CCN(CCc3ccc(OC)cc3)CC2)c2cc(OC)ccc21` [Compound 2024, (E)-3-(1-(3-(diethylamino)propyl)-5-methoxy-2-methyl-1H-indol-3-yl)-1-(4-(4-methoxyphenethyl)piperazin-1-yl)prop-2-en-1-one], the IC50 worked out at 3.4 µM in assay [1]; 3 µM in assay [2]; 8.4 µM in assay [3]; 5.7 µM in assay [4]; 5.3 µM in assay [5]; 7.7 µM in assay [6]. The IC50 in assay [7] was 4.1 µM.
On to `CCN(CC)CCCn1c(C)c(/C=C/C(=O)N2CCN(CCc3ccc4c(c3)OCO4)CC2)c2cc(OC)ccc21` [Compound 2025, (E)-1-(4-(2-(benzo[d][1,3]dioxol-5-yl)ethyl)piperazin-1-yl)-3-(1-(3-(diethylamino)propyl)-5-methoxy-2-methyl-1H-indol-3-yl)prop-2-en-1-one], for which the IC50 in assay [1] was determined as 4.1 µM; in assay [2], 4.1 µM; in assay [3] it was 15.6 µM; in assay [4], 7.6 µM; in assay [5] it was 16.5 µM; in assay [6], 4.7 µM. The compound also showed an IC50 in assay [7] of 30 µM.
Regarding `CCN(CC)CCCn1c(C)c(/C=C/C(=O)N2CCN(CCc3cccc(OC)c3)CC2)c2cc(OC)ccc21` [Compound 2027, (E)-3-(1-(3-(diethylamino)propyl)-5-methoxy-2-methyl-1H-indol-3-yl)-1-(4-(3-methoxyphenethyl)piperazin-1-yl)prop-2-en-1-one], the half-maximal inhibitory concentration (IC50) in assay [1] turned out to be 8.2 µM; in assay [2], 3.8 µM; in assay [3] it was 51.9 µM; in assay [4], 9.3 µM; in assay [5], 12.3 µM; in assay [6] it was 23.5 µM. This compound also returned an IC50 in assay [7] of 5.6 µM.
Take `CCN(CC)CCCn1c(C)c(/C=C/C(=O)N2CCN(CCc3ccccc3)CC2)c2cc(OC)ccc21` [Compound 2028, (E)-3-(1-(3-(diethylamino)propyl)-5-methoxy-2-methyl-1H-indol-3-yl)-1-(4-phenethylpiperazin-1-yl)prop-2-en-1-one]: the IC50 was found to be 2.7 µM in assay [1]; 2 µM in assay [2]; 5.3 µM in assay [3]; 5.3 µM in assay [4]; 4.1 µM in assay [5]; 4.2 µM in assay [6]. This compound displayed a concentration for half-maximal inhibition (IC50) in assay [7] of 5.2 µM.
